Reference: patent US12247045B2, “MAP4K4 inhibitors” (Imperial College Innovations Limited, priority 2018, dated 2025)

Tests used:
[1] = biological target: T1, GLK/MAP4K3 (Homo sapiens, UniProt Q8IVH8); assay: Kinase selectivity panel, GLK/MAP4K3; assay type: biochemical
T1 sequence (Q8IVH8 1-894): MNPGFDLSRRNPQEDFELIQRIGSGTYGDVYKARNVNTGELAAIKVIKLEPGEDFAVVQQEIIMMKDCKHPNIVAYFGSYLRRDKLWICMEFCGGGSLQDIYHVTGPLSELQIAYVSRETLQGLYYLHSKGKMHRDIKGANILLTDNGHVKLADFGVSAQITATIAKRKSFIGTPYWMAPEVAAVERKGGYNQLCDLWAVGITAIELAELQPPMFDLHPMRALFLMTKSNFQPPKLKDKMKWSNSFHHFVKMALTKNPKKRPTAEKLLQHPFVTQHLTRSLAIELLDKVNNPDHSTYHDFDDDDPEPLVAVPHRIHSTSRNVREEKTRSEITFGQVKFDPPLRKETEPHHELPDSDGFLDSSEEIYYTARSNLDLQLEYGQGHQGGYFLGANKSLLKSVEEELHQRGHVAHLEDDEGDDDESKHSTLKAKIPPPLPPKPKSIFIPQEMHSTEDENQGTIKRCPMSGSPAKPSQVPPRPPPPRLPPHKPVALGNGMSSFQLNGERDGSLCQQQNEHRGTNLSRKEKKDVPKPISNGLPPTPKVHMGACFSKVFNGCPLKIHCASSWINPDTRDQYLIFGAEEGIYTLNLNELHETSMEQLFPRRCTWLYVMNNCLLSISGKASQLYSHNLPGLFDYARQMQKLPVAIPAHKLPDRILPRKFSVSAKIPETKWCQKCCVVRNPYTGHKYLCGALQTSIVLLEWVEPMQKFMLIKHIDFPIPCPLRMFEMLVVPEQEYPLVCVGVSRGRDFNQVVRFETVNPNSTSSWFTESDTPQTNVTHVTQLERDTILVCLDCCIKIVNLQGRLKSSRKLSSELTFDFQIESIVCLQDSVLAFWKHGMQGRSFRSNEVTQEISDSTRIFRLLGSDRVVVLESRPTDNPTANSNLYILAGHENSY
Source text: (§1) The data in Table 42 also provides the fold selectivity of the two compounds in favour of MAP4K4 over the tested kinase. The fold selectivity is indicated in parenthesis.

[2] = biological target: ABL1 (Homo sapiens, UniProt P00519); assay: Kinase selectivity panel, ABL1; assay type: biochemical
Source text: as §1

ABL1, sequence (P00519 whole entry, species assumed): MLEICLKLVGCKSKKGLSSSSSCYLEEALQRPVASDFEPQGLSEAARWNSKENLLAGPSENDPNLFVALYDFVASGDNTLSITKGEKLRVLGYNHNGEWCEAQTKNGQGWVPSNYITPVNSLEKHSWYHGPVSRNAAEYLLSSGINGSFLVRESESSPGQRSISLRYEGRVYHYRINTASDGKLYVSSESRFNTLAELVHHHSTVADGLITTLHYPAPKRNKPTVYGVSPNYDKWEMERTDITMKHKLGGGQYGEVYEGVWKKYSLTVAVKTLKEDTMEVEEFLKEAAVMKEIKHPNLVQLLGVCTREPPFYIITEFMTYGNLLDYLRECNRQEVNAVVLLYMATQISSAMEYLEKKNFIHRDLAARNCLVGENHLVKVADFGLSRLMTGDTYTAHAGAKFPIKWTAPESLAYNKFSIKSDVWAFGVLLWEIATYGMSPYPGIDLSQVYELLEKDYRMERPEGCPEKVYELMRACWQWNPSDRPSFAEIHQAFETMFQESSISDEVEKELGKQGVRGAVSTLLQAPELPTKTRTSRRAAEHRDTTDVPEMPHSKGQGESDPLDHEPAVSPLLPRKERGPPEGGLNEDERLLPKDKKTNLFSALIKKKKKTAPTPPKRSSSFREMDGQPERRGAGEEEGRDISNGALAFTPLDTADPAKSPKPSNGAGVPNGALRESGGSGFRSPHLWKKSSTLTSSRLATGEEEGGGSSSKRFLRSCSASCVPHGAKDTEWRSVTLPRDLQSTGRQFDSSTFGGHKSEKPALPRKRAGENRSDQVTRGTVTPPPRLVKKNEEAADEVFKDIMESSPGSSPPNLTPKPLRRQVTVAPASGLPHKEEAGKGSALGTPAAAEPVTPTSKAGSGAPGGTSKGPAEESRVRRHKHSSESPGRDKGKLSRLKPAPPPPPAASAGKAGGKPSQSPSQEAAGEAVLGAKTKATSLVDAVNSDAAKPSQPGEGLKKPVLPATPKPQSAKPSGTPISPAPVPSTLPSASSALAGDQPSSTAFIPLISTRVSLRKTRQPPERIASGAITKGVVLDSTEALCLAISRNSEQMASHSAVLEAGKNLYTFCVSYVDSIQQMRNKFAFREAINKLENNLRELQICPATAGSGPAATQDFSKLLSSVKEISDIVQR

**Q.** How did the “fold selectivity MAP4K4 over GLK/MAP4K3” value ([1]; in favour of MAP4K4) turn out when `CC(C)(O)CCOc1ccc(-c2cn(-c3cccnc3)c3nc[nH]c(=O)c23)cc1` [Ex-78, 5-(4-(3-hydroxy-3-methylbutoxy)phenyl)-7-(pyridin-3-yl)-3,7-dihydro-4H-pyrrolo[2,3-d]pyrimidin-4-one] was run?
**A.** Its value is “(50) fold”.

**Q.** And the IC50 ([1]; read-out: pIC50 GLK/MAP4K3 (converted))?
**A.** Its IC50 is 1.58 µM.

**Q.** And the “fold selectivity MAP4K4 over ABL1” value ([2]; in favour of MAP4K4)?
**A.** The value was “(251) fold”.

**Q.** And the IC50 ([2]; read-out: pIC50 ABL1 (converted))?
**A.** Its IC50 is 7.94 µM.
